Here are results for 4 compounds from US9809586B2, “Inhibitors of collagen prolyl 4-hydroxylase” (WISCONSIN ALUMNI RESEARCH FOUNDATION, priority 2015, dated 2017).

The structures appear in SMILES notation. Like-named read-outs stand apart in the source and are kept apart here.

One series concerns IRPs. Description: Electrophoretic mobility shift assay for IRE-binding by IRPs from treated cells. Type of series: cell-based, human. As to conditions: treated MDA-MB-231 cells, 24 h, radiolabeled RNA ligand. How it is done: The resultant pellets (˜50 μL) were washed with PBS and then lysed using a protocol described previously.^41 Briefly, cell pellets were resuspended in 200 μL of cell lysis buffer, which was 20 mM Hepes-HCl buffer, pH 7.4, containing sodium pyrophosphate (10 mM), sodium fluoride (50 mM), β-glycerophosphate (50 mM), EDTA (5 mM), GTP (1 mM), sodium orthovanadate (1 mM), benzamidine hydrochloride (2 mM), Nonidet NP-40 (0.5% v/v), p-nitrophenyl p′-guanidinobenzoate-HCl (25 μg/mL), DTT (1 mM), leupeptin (40 μg/mL), pepstatin (4 μg/mL), SBTI (100 μg/mL), MG132 (10 μM), PMSF (200 μM), and BHT (5 μg/mL) by vortexing and lysed on ice by vortexing every few min. After 15 min, the lysates were centrifuged at 14,000 rpm and the supernatants aliquoted and stored at −80° C. until analysis by an electrophoretic mobility shift assay (EMSA).
EMSAs were performed and quantified essentially as described previously.^42 Briefly [^32P]-L-ferritin IRE (1 nM RNA, specific radioactivity ˜7,000 dpm/fmol) was incubated with lysate protein (2.5 μg as determined by the Bradford assay) in binding buffer for 10 min on ice. Heparin was added (to 0.5 mg/mL), and the reaction mixture was incubated for an additional 5 min on ice before separating bound and free RNA on a nondenaturing polyacrylamide gel at ambient temperature.
For orientation: In EMSA bound probe runs differently from free probe, usually more slowly.

In series [1] the test system is MDA-MB-231 cells. To be noted: 500 μM; cited from earlier work.
The subject of another series is breast cancer. To be noted: mouse model of breast cancer, Gilkes et al.; cited from earlier work.
For series [2] the following is noted: cited from earlier work.
For series [3] the following is noted: titration of 20 μM FeSO4; bipy; read-out: Fe20-EC50; cited from earlier work.
Series [4] is described as follows: Assay of Fe(II)-affinity for biheteroaryl ligands (Fe20-EC50 titration, spectrophotometry). As to conditions: Fe(II) 20 μM; highest concentration tested, not saturated. The series is classed as physicochemical. Here is the method: A library of biheteroaryl compounds (FIG. 2) was prepared and evaluated them as iron chelators in vitro. The library was assembled either from commercial vendors (pypyr and pyim) or by synthesis using palladium-catalyzed cross-coupling reactions (pypyraz, pypyrid, pyox, and pythi). To evaluate the iron affinity of these compounds in vitro, titration experiments were performed to determine the half-maximal concentration required to form a complex with 20 μM Fe(II) at pH 7.0.
The affinity of biheteroaryl ligands for Fe(II) was determined comparatively by measuring the half-maximal concentration (EC50) required for binding 20 μM Fe(II) (Fe20-EC50) in sodium phosphate buffer at pH 7. Stock solutions of ligands were prepared in either water for high affinity ligands (typically Fe20-EC50<1 mM) or DMSO for low affinity ligands (typically Fe20-EC50>1000 μM). Stock solutions of FeSO4 were prepared in H2O and used within 3 hours of preparation. […] For high affinity ligands, solutions were allowed to equilibrate for 15 min, after which the absorbance was recorded at the λmax for the complex under study. For most low affinity ligands, the corresponding Fe(II) complexes were unstable and observed to dissociate over time. Therefore, the absorbance value was determined within 30 s of mixing, where the absorbance was measured at the λmax for the complex under study. Complexes with pyox were not observed under these conditions. Absorbance values were corrected by subtracting the absorbance value in the absence of ligand. Dose-response curves were generated for each ligand by plotting the absorbance versus the log of the ligand concentration. Fe20-EC50 values for each ligand were interpolated from the dose-response curves by non-linear regression using the sigmoidal dose-response function in Prism. All experiments were performed in triplicate.

The test system of series [5] is MDA-MB-231 cells. The series can be described thus: Cytotoxicity assay (MTS). Type of series: cell-based. As to conditions: MDA-MB-231, 24 h; higher than aqueous solubility limit. How it is done: The toxicity of esterified biheteroaryl compounds for human breast cancer cells was evaluated with the CellTiter 96® AQueous One Solution Cell Proliferation Assay (MTS) from Promega (Madison, Wis.). Briefly, MDA-MB-231 cells grown as described in Section X were plated at a concentration of 5,000 cells/well in a clear 96-well plate. The cells were allowed to adhere for 4 h, after which the medium was removed and discarded. Fresh medium was added and the cells were treated with varying concentrations of the test compound at 37° C. for 24 h. The medium was removed, and cells were washed with Dulbecco's PBS. The MTS reagent was added at a ratio of 1:5, and the cells were incubated at 37° C. for 2 h before measuring the absorbance at 490 nm. The average absorbance was measured in triplicate for each concentration tested, and the entire experiment was repeated in duplicate. The percentage of viable cells was determined by normalizing to a PBS control (100% viable), and a H2O2 control (0% viable). For all of the compounds tested, the LD50-value could not be measured due to its being higher than the aqueous solubility limit: diethyl bipy55′DC, LD50>100 μM; diethyl pyimDC, LD50>1000 μM; diethyl pythiDC, LD50>500 μM.

Another series deals with HEK293T cells. Description: Effect on iron metabolism (immunoblots for ferritin, TfR, HIF-1α) in HEK293T cells. To be noted: HEK cells; diethyl pyimDC at low levels. Type of series: cell-based, human. (In general: Immunoblotting shows a protein as a band on a membrane.)
Series [6] has as its system MDA-MB-231 cells. Description: Effect on secretion of type I collagen into conditioned media. The series is classed as cell-based, human. Here is the method: For investigations of collagen secretion, protein samples were separated by SDS-PAGE through a 7.5% w/v acrylamide gel. Blots were first stained for total protein using Ponceau S, after which they were probed with a primary antibody to human type-I collagen (α1) (rabbit polyclonal) from Novus Biologicals (Littleton, Colo.).
After the addition of a test compound or vehicle (DMSO), cells were incubated for 48 h, after which 1.0 mL of conditioned medium was removed and added to 4.0 mL of chilled acetone (−20° C.). The resultant mixtures were incubated for 3 h at −20° C., after which the precipitated protein was pelleted by centrifugation at 10,000 g for 30 min. The supernatants were discarded and the pellets dried briefly in a fume hood. Pellets were stored at −20° C. prior to analysis with an immunoblot.

The subject of a further series is P4HA1. The series can be described thus: Effect on P4HA1 levels (immunoblot). Type of series: cell-based, human. To be noted: MDA-MB-231. Here is the method:
For investigations of P4HA1 levels, protein samples were treated and quantified as described above for iron metabolism except that the blots were probed with primary antibodies to human P4HA1 (rabbit polyclonal) from Thermo Fisher Scientific and human β-actin.

For series [7], the system named is MDA-MB-231 breast cancer cells. The series can be described thus: Effect on iron metabolism (immunoblots for ferritin, TfR, HIF-1α) in MDA-MB-231 cells.
Description: (§1) MDA-MB-231 or HEK293T cells were plated at 50,000 cells/well into 12-well plates and grown to confluence (˜24 h) as described in Section X. The cells were washed, and the medium was replaced with 1.0 mL of serum-free medium. Stock solutions of all test compounds were prepared at 100× in DMSO and added to a final concentration of 1× (0.1-0.5 mM). After addition of the test compound or DMSO vehicle, cells were incubated for 24 h. The cells were then washed with 100 μL MPER solution from Thermo Fisher Scientific (Waltham, Mass.) and collected. Protein concentrations were determined by BCA assay (Thermo Fisher Scientific), and samples corresponding to 40 μg total protein were analyzed by immunoblot.
(§2) For all immunoblot analyses, protein samples where boiled in SDS-PAGE buffer, separated by electrophoresis through a Tris-glycine SDS-PAGE gel from Bio-Rad Laboratories (Hercules, Calif.), and subsequently transferred to a PVDF membrane for immunoblotting. All primary antibodies were used at the working dilution specified by the manufacturer. Primary antibodies were visualized using a complementary secondary antibody fused to horseradish peroxidase (HRP), with detection of HRP by chemiluminescence, imaging using an ImageQuant LAS 4000 (GE Healthcare), and quantification by densitometry (ImageJ software). The anti-rabbit antibody from Promega and the anti-mouse antibody from Abbiotec (San Diego, Calif.) were used at the working dilution specified by the manufacturer.
(§3) For investigations of iron metabolism, protein samples (40 μg) were separated by SDS-PAGE through a 12% w/v acrylamide gel, and blots were probed with primary antibodies to human ferritin (rabbit monoclonal) from Abcam (Cambridge, Mass.), human transferrin receptor (mouse monoclonal) from Invitrogen, human HIF-1α (mouse monoclonal) from BD Biosciences, and human β-actin (rabbit monoclonal) from Cell Signaling Technology (Danvers, Mass.). Quantifications were normalized to the signal from β-actin, after which treated samples were compared to vehicle-treated controls.
The next series addresses T1, human CP4H1 (Homo sapiens, UniProt P13674).
T1 construct: made in house; host or cells: Origami B(DE3) Escherichia coli
Description: Assay of human CP4H1 activity in the presence of inhibitors. The series is classed as biochemical. Here is the method: The catalytic activity of human CP4H1 was assayed as described previously.^35 Briefly, activity assays were carried out at 30° C. in 100 μL Tris-HCl buffer, pH 7.8, containing human CP4H1 (100 nM), inhibitor (0-500 μM), substrate (dansylGlyProProGlyOEt, 500 μM), FeSO4 (50 μM), BSA (1 mg/mL), catalase (0.1 mg/mL), sodium ascorbate (2 mM), DTT (100 μM), and α-ketoglutarate (100 μM). Reactions were pre-incubated with or without inhibitor for 2 min at 30° C., after which the reaction was initiated by the addition of α-ketoglutarate. After 15 min, reactions were quenched by boiling for 45 s and centrifuged at 10,000 g. The supernatant (20-50 μL) was injected into a Nucleodur® C18 Gravity reversed-phase column (4.6×250 mm, 5 μm particle size) from Macherey-Nagel (Bethlehem, Pa.). The column was eluted at 1 mL/min with a gradient (20 min) of aqueous acetonitrile (20-45% v/v) containing 0.1% v/v TFA. The absorbance of the eluent was monitored at 289 nm. All assays were performed in triplicate. Data are reported as activity relative to control reactions lacking inhibitor, where catalytic activity is determined from the percent conversion of substrate to product. Dose-response curves were generated for each inhibitor by plotting the relative activity versus the log of the inhibitor concentration. IC50-values for each inhibitor were interpolated from the data by non-linear regression using the sigmoidal dose-response function available in Prism.

The target of a further series is T2, human PHD2 (Homo sapiens, UniProt Q9GZT9).
T2 construct: made in house
T2 sequence (Q9GZT9 181-426 limits assumed): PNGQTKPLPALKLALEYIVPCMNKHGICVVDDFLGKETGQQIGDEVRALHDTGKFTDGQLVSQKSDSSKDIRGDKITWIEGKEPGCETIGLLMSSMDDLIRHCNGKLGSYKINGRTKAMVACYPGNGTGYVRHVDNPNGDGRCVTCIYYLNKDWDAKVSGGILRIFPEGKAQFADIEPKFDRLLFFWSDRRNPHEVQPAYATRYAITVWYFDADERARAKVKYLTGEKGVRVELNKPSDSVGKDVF
Description: Assay of human PHD2 activity in the presence of inhibitors. The series is classed as biochemical. As to conditions: 10 μM compound. How it is done: The catalytic activity of human PHD2 was assayed as described previously.^36 Briefly, activity assays were carried out at 30° C. in 100 μL Tris-HCl buffer, pH 7.8, containing human NHis6-PHD2181-426 (5 μM), inhibitor (0-50 μM), substrate (HIF-1α peptide556-574, 50 μM), FeSO4 (50 μM), BSA (1 mg/mL), catalase (0.3 mg/mL), sodium ascorbate (2 mM), DTT (1 mM), and α-ketoglutarate (35 μM). Reactions mixtures were pre-incubated with or without inhibitor for 2 min at 30° C., after which the reaction was initiated by the addition of α-ketoglutarate. After 10 minutes, reactions were quenched by boiling for 60 s and centrifuged at 10,000 g. The supernatant (50 μL) was injected into a Nucleodur® C18 Gravity reversed-phase column (4.6×250 mm, 5 μm particle size) from Macherey-Nagel (Bethlehem, Pa.). The column was eluted at 1 mL/min with a gradient (34 min) of 5-56% aqueous acetonitrile containing 0.1% v/v TFA. The absorbance of the eluent was monitored at 218 nm. All assays were performed in triplicate. Data is reported as activity relative to control reactions lacking inhibitor, where activity is determined from the percent conversion of substrate to product.

T1 sequence (P13674 18-534): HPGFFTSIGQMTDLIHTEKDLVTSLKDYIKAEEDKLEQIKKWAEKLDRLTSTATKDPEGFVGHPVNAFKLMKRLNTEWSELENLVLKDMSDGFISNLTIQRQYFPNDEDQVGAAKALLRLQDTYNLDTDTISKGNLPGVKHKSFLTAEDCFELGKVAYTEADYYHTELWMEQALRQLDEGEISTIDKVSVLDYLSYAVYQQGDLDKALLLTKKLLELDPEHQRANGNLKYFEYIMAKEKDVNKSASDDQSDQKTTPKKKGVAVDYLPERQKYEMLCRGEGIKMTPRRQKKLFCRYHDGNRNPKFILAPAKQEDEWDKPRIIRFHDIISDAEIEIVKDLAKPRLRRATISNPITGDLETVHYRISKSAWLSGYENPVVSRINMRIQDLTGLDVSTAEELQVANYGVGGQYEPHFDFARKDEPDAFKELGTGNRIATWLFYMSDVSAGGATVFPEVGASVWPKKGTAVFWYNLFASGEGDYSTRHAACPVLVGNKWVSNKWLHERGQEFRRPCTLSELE
T1 sequence (P07237 18-508 partner): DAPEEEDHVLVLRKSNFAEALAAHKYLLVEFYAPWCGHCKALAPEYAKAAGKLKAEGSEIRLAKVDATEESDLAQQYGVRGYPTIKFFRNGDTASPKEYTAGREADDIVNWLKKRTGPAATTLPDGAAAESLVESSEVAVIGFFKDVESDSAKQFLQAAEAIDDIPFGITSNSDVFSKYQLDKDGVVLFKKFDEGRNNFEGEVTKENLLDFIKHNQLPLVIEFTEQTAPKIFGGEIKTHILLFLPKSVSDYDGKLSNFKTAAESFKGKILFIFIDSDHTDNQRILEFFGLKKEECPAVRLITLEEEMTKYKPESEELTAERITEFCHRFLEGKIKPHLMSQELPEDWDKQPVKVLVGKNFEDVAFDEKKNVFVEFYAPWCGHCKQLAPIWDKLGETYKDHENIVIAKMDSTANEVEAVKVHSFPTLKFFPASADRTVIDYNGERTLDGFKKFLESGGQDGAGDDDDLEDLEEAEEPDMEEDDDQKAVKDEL
Description for HEK293T cells: as §1, §2, §3

As to `CCOC(=O)c1ccc(O)c(O)c1` [EDHB, Ethyl dihydroxybenzoate], the “RNA binding by IRPs” value in the series on IRPs is reported as “significant increases”. Besides, in the series with MDA-MB-231 cells [1], the Collagen secretion result is “diminish collagen secretion significantly”. For the same compound, in the series on breast cancer, the “Tumor fibrosis and metastasis” value was “decreases tumor fibrosis and metastasis”.

With `c1ccc(-c2ccccn2)nc1` [bipy, 2,2′-bipyridine, reference compound], the “RNA binding by IRPs” value with IRPs is “significant increases”. Also, the “Heteroaryl pKa (ref.)” value in series [2] (conjugate acid of pyridine (bipy) or the nonpyridyl ring) is recorded as 5.2 (48). Also, the pKa in series [2] (conjugate acid of the entire compound, bipy) is 4.3. For the same compound, the EC50 in [3] is 43 ± 2 µM.

In the case of `CCOC(=O)c1ccc(-c2ncc(C(=O)OCC)[nH]2)nc1` [diethyl pyimDC, Ethyl 2-(5-ethoxycarbonyl-1H-imidazol-2-yl)pyridine-5-carboxylate], the EC50 in [4] was more than 600 µM. For the same compound, the LD50 in the series on MDA-MB-231 cells [5] is more than 1000 µM. Also, the “Level of TFR, HIF-1α, or ferritin” value in the series on HEK293T cells is “did not affect”. For the same compound, the “RNA binding by IRPs” value in the series with IRPs is recorded as “did not”. The “Efficacy on collagen secretion compared with diethyl bipy55′DC” value with MDA-MB-231 cells [6] (MDA-MB-231) is given as “indistinguishable”. Besides, the “Level of secreted type I collagen” value in the series with MDA-MB-231 cells [6] (MDA-MB-231, 48 h, conditioned media) is “reduced the level of secreted collagen significantly”. In addition, in the series on P4HA1, the “Levels of human CP4H1 (P4HA1) itself” value is on record as “did not appear to affect”. Also, the “Accumulation of TFR or HIF-1α” value in series [7] (MDA-MB-231) is given as “without an associated accumulation”. Moreover, the “Concentration at which no iron-deficient phenotype is observed” value in series [7] (MDA-MB-231, 24 h) was not above 56 µM. For the same compound, in [7] (MDA-MB-231, 24 h, EDHB 500 μM, diethyl pythiDC up to 500 μM), the “Iron-deficiency phenotype of treated cells” value was “intermediate phenotype”. For the same compound, the Ferritin levels entry in [7] (MDA-MB-231, above 56 μM) is “significant decrease”.

On to `O=C(O)c1ccc(-c2ncc(C(=O)O)[nH]2)nc1` [pyimDC, 2-(5-Carboxy-1-H-imidazol-2-yl)pyridine-5-carboxylic Acid], for which the “Inhibition of catalytic activity of human CP4H1 in initial screen” value at human CP4H1 (10 μM compound, 50 μM FeSO4) is listed as “inhibitors”. Besides, on human CP4H1 (dose-response, mean of three independent experiments), the IC50 came to 2600 ± 100 nM. Further, on human CP4H1 (from dose-response IC50 values), the “Potency relative to pyoxDC” value is listed as “approximately 10 fold”. In addition, the “Inhibition of human PHD2 in screen” value at human PHD2 was “only weakly”.

The term pKa denotes the pH at which an ionisable group is half protonated. In general, EC50 refers to the concentration giving half of the maximal effect. One may read the IC50 as the concentration that gives 50% inhibition.
